Assay results published in patent US7592457B2 (Korea Research Institute of Chemical Technology, priority 2004, dated 2009).

What was measured:
[1] = target: T1, human serotonin 5-HT6 receptor (Homo sapiens, UniProt P50406); test: [3H]LSD binding at cloned 5-HT6 receptors; conditions: for IC50: [3H]LSD 1.87 nM, cloned receptor membranes, 37° C., 60 min, read-out: IC50; for inhibition at 10 µM: read-out: Binding affinity (Inhibition rate % at 10 μM) 5HT6
T1 construct: made in house; host or cells: Sf21 insect cells (pBacPAK8 baculovirus vector)

D1 = D1 (Homo sapiens, UniProt P21728); test: Radioligand binding for selectivity, D1; conditions: read-out: Binding affinity (Inhibition rate % at 10 μM) D1
hD2L receptor = target: T2, hD2L receptor (Homo sapiens, UniProt P14416); test: Radioligand binding, dopamine D2 ([3H]spiperone); conditions: read-out: Binding affinity (Inhibition rate % at 10 μM) D2
T2 construct: purchased BioSignal Packard Inc., Montreal, Canada
Experimental: (§1) The radioligands used were [^3H] spiperone (for hD2L and hD3 receptors, 1 nM) and [^3H] YM-09151-2 (for hD4.2 receptor, 0.06 nM). Radioligand bindings were performed by the protocols provided by the supplier of receptor membranes (BioSignal Packard Inc., Montreal, Canada). Briefly, the buffer used in D2 or D3 receptor binding assay was 50 mM Tris-HCl (pH 7.4), 10 mM MgCl2, 1 mM EDTA, or 50 mM Tris-HCl (pH 7.4), 5 mM MgCl2, 5 mM EDTA, 5 mM KCl, 1.5 mM CaCl2, 120 mM NaCl, respectively. In [^3H] YM-09151-2 receptor binding assays, the buffer containing 50 mM Tris-HCl (pH 7.4), 5 mM MgCl2, 5 mM EDTA, 5 mM KCl and 1.5 mM CaCl2 was used. Nonspecific binding was determined with haloperidol (10 μM) or clozapine (10 μM) for D2 and D3, and D4 receptors, respectively. Competition binding studies were carried out with 7-8 concentrations of the test compound run in duplicate tubes, and isotherms from three assays were calculated by computerized nonlinear regression analysis (GraphPad Prism Program, San Diego, […]) to yield median inhibitory concentration (IC50) values.

hD3 receptor = target: T3, hD3 receptor (Homo sapiens, UniProt P35462); test: Radioligand binding, dopamine D3 ([3H]spiperone); conditions: read-out: Binding affinity (Inhibition rate % at 10 μM) D3
T3 construct: purchased BioSignal Packard Inc., Montreal, Canada
Experimental: as §1

hD4.2 receptor = target: T4, hD4.2 receptor (Homo sapiens, UniProt P21917, DEL265-296); test: Radioligand binding, dopamine D4 ([3H]YM-09151-2); conditions: read-out: Binding affinity (Inhibition rate % at 10 μM) D4
T4 construct: purchased BioSignal Packard Inc., Montreal, Canada
T4 sequence (P21917 with tags, fused parts or gaps DEL265-296): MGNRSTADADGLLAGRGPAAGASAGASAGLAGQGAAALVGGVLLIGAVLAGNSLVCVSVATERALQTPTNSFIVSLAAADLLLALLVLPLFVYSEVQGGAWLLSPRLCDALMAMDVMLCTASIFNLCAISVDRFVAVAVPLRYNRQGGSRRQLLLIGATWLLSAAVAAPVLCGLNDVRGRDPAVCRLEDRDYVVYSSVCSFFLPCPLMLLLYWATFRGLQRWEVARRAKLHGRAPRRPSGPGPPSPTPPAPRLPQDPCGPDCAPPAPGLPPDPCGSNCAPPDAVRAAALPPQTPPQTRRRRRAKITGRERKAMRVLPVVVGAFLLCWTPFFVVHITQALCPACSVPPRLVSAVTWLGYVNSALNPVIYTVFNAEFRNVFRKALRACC
Experimental: as §1

5-HT1a = target: T5, 5-HT1a (Homo sapiens, UniProt P08908); test: Radioligand binding, 5-HT1a ([3H]8-OH-DPAT); conditions: read-out: Binding affinity (Inhibition rate % at 10 μM) 5HT1a
T5 construct: purchased Euroscreen/BioSignal Packard Inc
T5 sequence (P08908 1-422): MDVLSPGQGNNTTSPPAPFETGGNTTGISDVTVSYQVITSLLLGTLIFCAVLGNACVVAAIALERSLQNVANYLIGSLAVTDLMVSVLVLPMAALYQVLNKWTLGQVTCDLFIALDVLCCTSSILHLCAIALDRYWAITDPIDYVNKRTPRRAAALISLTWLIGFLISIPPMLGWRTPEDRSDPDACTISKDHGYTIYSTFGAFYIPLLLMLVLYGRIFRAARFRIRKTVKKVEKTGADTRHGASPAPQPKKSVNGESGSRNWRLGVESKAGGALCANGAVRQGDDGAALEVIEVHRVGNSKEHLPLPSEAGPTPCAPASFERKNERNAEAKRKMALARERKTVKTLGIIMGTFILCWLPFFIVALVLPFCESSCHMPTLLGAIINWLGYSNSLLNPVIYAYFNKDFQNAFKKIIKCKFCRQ
Experimental: (§2) Radioligand bindings were performed according to the test method provided by the supplier of receptor membrane (Euroscreen/BioSignal Packard Inc.).

5-HT2a = target: T6, 5-HT2a (Homo sapiens, UniProt P28223); test: Radioligand binding, 5-HT2a ([3H]Ketanserin); conditions: read-out: Binding affinity (Inhibition rate % at 10 μM) 5HT2a
T6 construct: purchased Euroscreen/BioSignal Packard Inc
Experimental: as §2

5-HT2c = target: T7, 5-HT2c (Homo sapiens, UniProt P28335); test: Radioligand binding, 5-HT2c ([3H]Mesulergine); conditions: read-out: Binding affinity (Inhibition rate % at 10 μM) 5HT2c
T7 construct: purchased Euroscreen/BioSignal Packard Inc
T7 sequence (P28335 33-458): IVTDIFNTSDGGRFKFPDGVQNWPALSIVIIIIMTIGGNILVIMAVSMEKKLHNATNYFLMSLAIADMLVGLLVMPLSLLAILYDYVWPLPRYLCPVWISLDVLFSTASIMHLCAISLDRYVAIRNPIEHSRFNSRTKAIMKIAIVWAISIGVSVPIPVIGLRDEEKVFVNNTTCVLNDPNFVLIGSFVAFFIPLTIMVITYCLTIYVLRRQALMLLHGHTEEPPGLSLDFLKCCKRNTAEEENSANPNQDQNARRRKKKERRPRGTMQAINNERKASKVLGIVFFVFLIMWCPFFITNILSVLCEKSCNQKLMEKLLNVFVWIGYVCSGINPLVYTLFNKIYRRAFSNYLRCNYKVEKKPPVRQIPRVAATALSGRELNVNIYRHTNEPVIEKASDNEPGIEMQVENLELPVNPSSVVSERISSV
Experimental: as §2

5-HT7 = target: T8, 5-HT7 (Homo sapiens, UniProt P34969); test: Radioligand binding, 5-HT7 ([3H]LSD); conditions: read-out: Binding affinity (Inhibition rate % at 10 μM) 5HT7
T8 construct: purchased Euroscreen/BioSignal Packard Inc
Experimental: as §2

T2 sequence (P14416 whole entry): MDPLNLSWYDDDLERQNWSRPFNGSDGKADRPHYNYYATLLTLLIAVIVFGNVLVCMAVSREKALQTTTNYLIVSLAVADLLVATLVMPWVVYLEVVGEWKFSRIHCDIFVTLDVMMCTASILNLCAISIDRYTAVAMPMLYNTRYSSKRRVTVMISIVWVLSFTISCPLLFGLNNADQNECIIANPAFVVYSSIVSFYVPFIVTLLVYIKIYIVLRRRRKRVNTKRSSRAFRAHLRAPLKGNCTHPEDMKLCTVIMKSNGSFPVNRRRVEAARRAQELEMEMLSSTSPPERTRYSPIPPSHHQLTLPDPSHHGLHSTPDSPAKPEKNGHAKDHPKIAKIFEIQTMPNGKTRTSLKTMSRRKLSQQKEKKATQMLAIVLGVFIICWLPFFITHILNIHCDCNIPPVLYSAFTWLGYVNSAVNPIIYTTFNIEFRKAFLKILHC
T6 sequence (P28223 whole entry): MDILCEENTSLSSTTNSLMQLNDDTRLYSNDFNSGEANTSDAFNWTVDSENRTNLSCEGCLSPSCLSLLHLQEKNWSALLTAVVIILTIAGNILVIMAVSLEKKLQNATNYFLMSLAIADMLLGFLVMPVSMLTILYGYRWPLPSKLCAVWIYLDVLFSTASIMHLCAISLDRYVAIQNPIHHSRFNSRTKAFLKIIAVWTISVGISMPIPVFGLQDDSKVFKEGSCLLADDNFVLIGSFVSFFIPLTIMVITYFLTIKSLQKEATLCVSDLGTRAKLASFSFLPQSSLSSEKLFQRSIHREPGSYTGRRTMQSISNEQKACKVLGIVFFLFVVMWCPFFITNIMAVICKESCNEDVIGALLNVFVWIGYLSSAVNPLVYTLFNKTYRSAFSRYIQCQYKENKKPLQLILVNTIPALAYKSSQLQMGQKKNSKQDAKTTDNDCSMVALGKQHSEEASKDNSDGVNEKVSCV
T3 sequence (P35462 whole entry): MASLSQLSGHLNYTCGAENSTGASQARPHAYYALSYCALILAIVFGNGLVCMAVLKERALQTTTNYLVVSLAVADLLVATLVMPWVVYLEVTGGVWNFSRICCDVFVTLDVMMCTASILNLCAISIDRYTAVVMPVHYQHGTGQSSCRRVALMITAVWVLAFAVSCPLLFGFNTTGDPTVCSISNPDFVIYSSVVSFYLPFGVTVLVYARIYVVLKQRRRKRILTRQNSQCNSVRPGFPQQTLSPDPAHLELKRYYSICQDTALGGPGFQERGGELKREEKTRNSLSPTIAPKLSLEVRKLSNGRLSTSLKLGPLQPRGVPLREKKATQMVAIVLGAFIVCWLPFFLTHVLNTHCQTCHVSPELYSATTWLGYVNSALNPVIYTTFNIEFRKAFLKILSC
T8 sequence (P34969 whole entry): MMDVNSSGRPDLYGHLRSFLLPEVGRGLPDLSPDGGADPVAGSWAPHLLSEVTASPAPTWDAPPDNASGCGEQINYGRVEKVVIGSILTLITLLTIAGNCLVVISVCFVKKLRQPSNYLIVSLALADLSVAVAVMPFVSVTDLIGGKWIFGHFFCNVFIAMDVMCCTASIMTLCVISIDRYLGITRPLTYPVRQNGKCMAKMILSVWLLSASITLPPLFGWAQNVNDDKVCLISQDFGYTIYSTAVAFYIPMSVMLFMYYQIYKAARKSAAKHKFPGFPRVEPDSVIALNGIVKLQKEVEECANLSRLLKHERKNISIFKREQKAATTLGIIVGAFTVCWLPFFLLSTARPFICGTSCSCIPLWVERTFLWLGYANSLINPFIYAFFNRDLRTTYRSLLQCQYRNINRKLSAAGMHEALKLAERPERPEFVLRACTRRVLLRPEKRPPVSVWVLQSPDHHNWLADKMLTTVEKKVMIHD
T1 sequence (P50406 whole entry): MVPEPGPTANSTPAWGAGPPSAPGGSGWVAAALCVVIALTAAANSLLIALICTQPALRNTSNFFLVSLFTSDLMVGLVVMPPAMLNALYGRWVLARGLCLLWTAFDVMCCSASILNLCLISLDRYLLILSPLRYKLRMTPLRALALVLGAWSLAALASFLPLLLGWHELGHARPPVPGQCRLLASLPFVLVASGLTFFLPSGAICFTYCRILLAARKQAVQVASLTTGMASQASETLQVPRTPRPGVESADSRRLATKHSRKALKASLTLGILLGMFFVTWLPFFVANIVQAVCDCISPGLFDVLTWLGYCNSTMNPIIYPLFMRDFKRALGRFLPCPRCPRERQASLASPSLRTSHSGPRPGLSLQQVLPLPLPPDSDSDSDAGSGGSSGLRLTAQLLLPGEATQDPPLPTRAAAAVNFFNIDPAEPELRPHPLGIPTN
Chain of D1 (P21728 whole entry): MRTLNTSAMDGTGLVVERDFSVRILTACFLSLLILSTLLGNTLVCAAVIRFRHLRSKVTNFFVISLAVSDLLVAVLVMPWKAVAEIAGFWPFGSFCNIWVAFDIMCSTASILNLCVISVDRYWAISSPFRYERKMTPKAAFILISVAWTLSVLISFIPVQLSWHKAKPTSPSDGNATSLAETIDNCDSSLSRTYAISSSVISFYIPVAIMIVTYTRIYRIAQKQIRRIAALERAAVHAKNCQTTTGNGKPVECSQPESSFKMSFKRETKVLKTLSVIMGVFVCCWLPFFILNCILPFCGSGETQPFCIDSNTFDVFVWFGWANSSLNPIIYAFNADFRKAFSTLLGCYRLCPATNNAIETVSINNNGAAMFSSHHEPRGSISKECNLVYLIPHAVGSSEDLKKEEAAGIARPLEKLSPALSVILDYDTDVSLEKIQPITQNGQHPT

Row | Structure (SMILES) | IC50 [1] [nM] | inhibition at 10 µM [1] [%] | inhibition at 10 µM (D1) [%] | inhibition at 10 µM (hD2L receptor) [%] | inhibition at 10 µM (hD3 receptor) [%] | inhibition at 10 µM (hD4.2 receptor) [%] | inhibition at 10 µM (5-HT1a) [%] | inhibition at 10 µM (5-HT2a) [%] | inhibition at 10 µM (5-HT2c) [%] | inhibition at 10 µM (5-HT7) [%] | melting point [°C] | 5-HT6 affinity compared with known selective antagonists ([1]; in words)
1 | CC1(c2ccccc2)C(=O)Nc2ccccc2C1=O (stereo not shown) [Example 2, 3-methyl-3-phenyl-1H-quinoline-2,4-dione] | 1080 | 73.2 | 10.2 | 5.6 | 12.2 | 0 | 15 | 8.4 | 30.6 | 10.4 | 194 to 196 | –
2 | CC1(c2ccc(O)cc2)C(=O)Nc2ccccc2C1=O (stereo not shown) [Example 34, 3-(4-hydroxy-phenyl)-3-methyl-1H-quinoline-2,4-dione] | 1260 | 70.8 | 15.8 | 17.3 | 25.4 | 0 | 19.8 | 13.5 | 20.1 | 0.9 | – | –
3 | CC1(c2ccc([N+](=O)[O-])cc2)C(=O)Nc2cc(Cl)c(Cl)cc2C1=O (stereo not shown) [Example 36, 6,7-dichloro-3-methyl-3-(4-nitro-phenyl)-1H-quinoline-2,4-dione] | 645 | 71.9 | 12.6 | 16.5 | 11.9 | 0 | 42.1 | 13.2 | 8.2 | 16.5 | – | –
4 | CNc1ccc(C2(C)C(=O)Nc3cc(Cl)cc(Cl)c3C2=O)cc1 (stereo not shown) [Example 39, 5,7-dichloro-3-methyl-3-(4-methylamino-phenyl)-1H-quinoline-2,4-dione] | 418 | 72 | 38.5 | 19.8 | 8.4 | 10.2 | 23 | 12.1 | 13.1 | 9.1 | – | –
5 | CCNc1ccc(C2(C)C(=O)Nc3cc(Cl)cc(Cl)c3C2=O)cc1 (stereo not shown) [Example 41, 5,7-dichloro-3-methyl-3-(4-ethylamino-phenyl)-1H-quinoline-2,4-dione] | 46 | 67.7 | 24 | 25.2 | 12.6 | 0 | 15.7 | 10.8 | 14 | 15.4 | – | almost same affinities as or better affinities than known selective antagonists
